This is an account of results in US6361595B1, “Process for the preparation of pigment compositions” (Ciba Specialty Chemicals Corporation, priority 1999, dated 2002).

Common to all, as to format: cell-based, bacteria
The subject of test [1] is mixed culture of Gram-positive cocci, Gram-negative cocci, Gram-positive rods and Gram-negative rods. Briefly: Microbial contamination of dried Pigment Yellow 65 powder (Example 2 procedure) after mixing filter cake with bacterial culture. The method, then:
(§1) Susceptibility to microbial contamination is assessed according to the following procedure:
(§2) Microbial contamination is assessed using individual bacteria of the morphological types, Gram-positive cocci, Gram-negative cocci, Gram-positive rods and Gram-negative rods which are maintained on Nutrient Agar slopes. When required, each is cultured in Nutrient broth at 30° C. until an organism count of >10^8 colony-forming units (cfu) per milliliter (ml) is reached. The individual cultures are then mixed in equal proportions to provide a mixed culture which is then used immediately.
(§3) 10 mg of the sieved powder and one drop of sterile water are evenly spread on a Nutrient Agar plate with a glass spreader under aseptic conditions and the plate incubated at 30° C. for 48 hours, The number of bacterial colonies evident on each plate are then counted and expressed as the number of colony-forming units per gram (cfu/g).
(§4) 23.3 parts of acetic acid (100%) are added to a solution of 55 parts of acetoacet-o-anisidide dissolved in a solution of 25.5 parts of sodium hydroxide (47%) in 450 parts of water at a temperature of 0° C. The resultant slurry is reacted with 42.5 parts of o-nitro-p-anisidine previously diazotised with 45.4 parts of sodium nitrite (37%) and 56 parts of hydrochloric acid (36%) in the usual manner with simultaneous addition of sodium hydroxide solution (10%) to maintain pH 5.5-6.0. To the coupled slurry are then added 3 parts of dibutyl sebacate and 1 part of dimethylbenzyl-C12-14alkylammonium chloride (100% active) and the mixture is heated to a temperature of 100° C. and maintained at this temperature for one hour. The product is then filtered and washed with water under vacuum to remove soluble salts. The filter cake (still under vacuum suction) is mixed with a bacterial culture (10 ml of culture diluted to 100 ml with water) and vacuum suction is maintained until no further liquid emanates from the filter cake. The filter cake, without further washing, is then dried and converted to a powder by grinding. The powder is then passed through a 150 micron sieve.
The procedure described in Example 2 is repeated, but varying the type of biocide and amount of biocide used.
The procedure described in Example 2 is repeated, but varying the type of biocide and amount of biocide used and omitting the DBS.

The test system is the same in test [2]. As to the kind of experiment: Microbial contamination of dried Pigment Yellow 13 powder (Example 5 procedure) after mixing filter cake with bacterial culture. The settings on record: PY13, no DBS. The method, then: as §1, §2, §3
A solution of 8.9 parts of acetic acid (100%) and 15 parts hydrochloric acid (36%) in 100 parts water are added to a solution of 63 parts of acetoacet-m-xylidide dissolved in a solution of 25.2 parts of sodium hydroxide (50%) in 676 parts of water at a temperature of 20° C. The resultant slurry is reacted with 36.9 parts of a previously tetrazotised solution of 3,3′-dichlorobenzidine, with simultaneous addition of sodium hydroxide solution (10%) to maintain pH 4.5-5.5. […] The product is then filtered and washed with water under vacuum to remove soluble salts. The filter cake (still under vacuum suction) is mixed with a bacterial culture (10 ml of culture diluted to 100 ml with water) and vacuum suction is maintained until no further liquid emanates from the filter cake. The filter cake, without further washing, is then dried and converted to a powder by grinding. The powder is then passed through a 150 micron sieve.

The test system is the same in test [3]. As to the kind of experiment: Microbial contamination of dried Pigment Yellow 74 powder (Example 1 procedure) after mixing filter cake with bacterial culture. The settings on record: PY74, 3 parts dibutyl sebacate, plate 30° C. 48 hours. How it is done: as §1, §2
as §4, with “(80%)” for “(100%)”, “p-nitro-o-anisidine” for “o-nitro-p-anisidine”, “cake(still” for “cake (still”, “water)and” for “water) and”
The procedure described in Example 1 is repeated, but varying the type of biocide and amount of biocide used. The procedure for determining the extent of microbial contamination is as follows:
as §3

The mark [4] stands for this setting: PY65, omitting the DBS, 0.5 parts biocide.
[5] abbreviates: PY65, omitting the DBS, 1.0 parts biocide.
The mark [6] stands for this setting: PY65, omitting the DBS, 3.0 parts biocide.
[7] abbreviates: PY65, omitting the DBS, 5.0 parts biocide.
Where [8] appears, read: PY65, with 3 parts dibutyl sebacate, 0.5 parts biocide.
Setting [9] is: PY65, with 3 parts dibutyl sebacate, 1.0 parts biocide.
The mark [10] stands for this setting: PY65, with 3 parts dibutyl sebacate, 3.0 parts biocide.
[11] abbreviates: PY65, with 3 parts dibutyl sebacate, 5.0 parts biocide.

Regarding `Cn1sccc1=O` [MIT, Methylisothiazolin-3-one], the “microbial contamination, colony-forming units per gram” value (from here on “microbial contamination … per gram”) in test [1] (setting [4]) was >10^5 cfu/g; in test [1] (setting [5]) it was >10^5 cfu/g; in test [1] (setting [6]) it was >10^5 cfu/g; in test [1] (setting [7]), >10^5 cfu/g; in test [1] (setting [8]), >10^4 cfu/g; in test [1] (setting [9]), >10^3 cfu/g. The “microbial contamination … per gram” value in test [1] (setting [10]) was >10^3 cfu/g; in test [1] (setting [11]), 0 cfu/g; in test [2] (0.5 parts biocide), >10^4 cfu/g; in test [2] (1.0 parts biocide), 4.0 × 10^3 cfu/g; in test [2] (5.0 parts biocide), 9.0 × 10^2 cfu/g; in test [3] (0.5 parts biocide) it was 8.0 × 10^3 cfu/g. The “microbial contamination … per gram” value in test [3] (1.0 parts biocide) is given as 1.0 × 10^4 cfu/g; in test [3] (3.0 parts biocide) it was 3.0 × 10^3 cfu/g; in test [3] (5.0 parts biocide), 1.0 × 10^4 cfu/g.

“Benzyldimethyl-C16-18-alkylammonium chloride [DMHTB]”: the “microbial contamination … per gram” value in test [3] (0.5 parts biocide) is reported as >10^4 cfu/g; in test [3] (1.0 parts biocide) it was 0 cfu/g; in test [3] (3.0 parts biocide), 0 cfu/g; in test [3] (5.0 parts biocide) it was 0 cfu/g.

Take “Tetrakishydroxymethylphosphonium sulphate [THPS]”: the “microbial contamination … per gram” value in test [1] (setting [4]), in test [1] (setting [5]), in test [1] (setting [6]), in test [1] (setting [7]), in test [1] (setting [8]) and in test [1] (setting [9]) was >10^5 cfu/g in each case. The “microbial contamination … per gram” value in test [1] (setting [10]) was >10^5 cfu/g; in test [1] (setting [11]), >10^5 cfu/g; in test [2] (0.5 parts biocide) it was >10^4 cfu/g; in test [2] (1.0 parts biocide), >10^4 cfu/g; in test [2] (3.0 parts biocide), >10^4 cfu/g; in test [2] (5.0 parts biocide) it was >10^4 cfu/g. The “microbial contamination … per gram” value in test [3] (0.5 parts biocide), in test [3] (1.0 parts biocide), in test [3] (3.0 parts biocide) and in test [3] (5.0 parts biocide) was >10^5 cfu/g in each case.

Consider “Trimethyl-di-C12-14-alkylammonium chloride [Example C-35]”, for which the “microbial contamination … per gram” value in test [3] (0.5 parts biocide) is recorded as >10^4 cfu/g; in test [3] (1.0 parts biocide) it was 4.5 × 10^3 cfu/g; in test [3] (3.0 parts biocide) it was 0 cfu/g; in test [3] (5.0 parts biocide), 0 cfu/g.

Consider `O=c1[nH]sc2ccccc12` [LV, 1,2-Benzisothiazolin-3-one], for which the “microbial contamination … per gram” value in test [1] (setting [4]), in test [1] (setting [5]), in test [1] (setting [6]), in test [1] (setting [7]), in test [1] (setting [8]) and in test [1] (setting [9]) was >10^4 cfu/g in each case. Moreover, the “microbial contamination … per gram” value is given as >10^4 cfu/g in test [1] (setting [10]); >10^4 cfu/g in test [1] (setting [11]); 3.0 × 10^3 cfu/g in test [2] (0.5 parts biocide); 4.0 × 10^2 cfu/g in test [2] (1.0 parts biocide); 1.0 × 10^2 cfu/g in test [2] (3.0 parts biocide); 6.0 × 10^2 cfu/g in test [2] (5.0 parts biocide). For the same molecule, the “microbial contamination … per gram” value in test [3] (0.5 parts biocide), in test [3] (1.0 parts biocide), in test [3] (3.0 parts biocide) and in test [3] (5.0 parts biocide) was >10^5 cfu/g in each case.

Consider “Methylbenzyl-di-C16-18-alkylammonium chloride [Example M2HTB]”, for which the “microbial contamination … per gram” value in test [3] (0.5 parts biocide) is given as >10^4 cfu/g; in test [3] (1.0 parts biocide), 0 cfu/g; in test [3] (3.0 parts biocide), 0 cfu/g; in test [3] (5.0 parts biocide) it was 0 cfu/g.

With “Dimethyl-di-C12-14-alkylammonium chloride [Example 2C-75]”, the “microbial contamination … per gram” value in test [3] (0.5 parts biocide) was 8.0 × 10^4 cfu/g; in test [3] (1.0 parts biocide), 0 cfu/g; in test [3] (3.0 parts biocide), 0 cfu/g; in test [3] (5.0 parts biocide), 0 cfu/g.

Take “Methylbis-(2-hydroxyethyl)-C12-14-alkylammonium chloride [EthO-12]”: the “microbial contamination … per gram” value in test [3] (0.5 parts biocide) is listed as >10^4 cfu/g; in test [3] (1.0 parts biocide), 0 cfu/g; in test [3] (3.0 parts biocide), 0 cfu/g; in test [3] (5.0 parts biocide) it was 0 cfu/g.

For the molecule `CCCCn1sc2ccccc2c1=O` [DN, n-Butylbenzisothiazolin-3-one], the “microbial contamination … per gram” value is >10^4 cfu/g in test [1] (setting [8]); >10^4 cfu/g in test [1] (setting [9]); >10^4 cfu/g in test [1] (setting [10]); 8.0 × 10^2 cfu/g in test [1] (setting [11]); >10^4 cfu/g in test [3] (0.5 parts biocide); >10^4 cfu/g in test [3] (1.0 parts biocide). For the same molecule, the “microbial contamination … per gram” value is listed as >10^3 cfu/g in test [3] (3.0 parts biocide) and 0 cfu/g in test [3] (5.0 parts biocide).
